Results from patent US11891373B2, “Crystalline forms of 1-((2R,4R)-2-(1H-benzo[d]imidazol-2-yl)-1-methylpiperidin-4-yl)-3-(4-cyanophenyl)urea maleate” (priority 2015, dated 2024).
Counter-ions that a name gives are not always drawn.

What was measured:
Type in all cases: physicochemical
[1] = Comparative thermal stability by Differential Scanning Calorimetry (DSC); conditions: 25° C. to 250° C. at 10° C./min, dry nitrogen purge
Experimental: Comparative thermal stability data was generated for glasdegib dihydrochloride monohydrate (diHCl.H2O) and glasdegib maleate (Form 1). Differential Scanning calorimetry (DSC) measurements were performed with Discovery DSC (TA instruments) equipped with a refrigerated cooling accessory. All the experiments were performed in standard/Tzero aluminum pans. The cell constant was determined using indium and temperature calibration was performed using indium and tin as standards. All the measurements were done under continuous dry nitrogen purge (50 mL/min). Approximately 2-5 mg of solid sample was weighed into a standard/Tzero aluminum pan, sealed non-hermetically and heated from 25° C. to 250° C. at 10° C./min heating rate. The experimental data were analyzed using commercially available software (TA Universal Analysis 2000/Trios software, TA Instruments).

[2] = Chemical stability of tablet cores (5% drug loading), open dish, HPLC/Purity analysis; conditions: 5% active drug loading; for % -(2S,4R)-Epimer 6 weeks @ 50° C./75% RH: open dish
Experimental: Comparative chemical and physical stability data was generated for tablet cores comprising glasdegib dihydrochloride monohydrate (diHCl.H2O) and glasdegib maleate (Form 1) stored at 50° C./75% RH for 6 weeks. The tablet cores were prepared by dry granulation processing in a formulation composition comprising microcrystalline cellulose, dicalcium phosphate, sodium starch glycolate and magnesium stearate at an active drug loading level of 5%. The tablet cores were stored in open dish (no packaging) orientation in a 50° C./75% RH chamber and analyzed after 6 weeks of storage. The analytical testing included HPLC/Purity analysis and solid state NMR (for solid form).
The primary degradation product monitored is the epimeric 1-((2S,4R)-2-(1H-benzo[d]imidazol-2-yl)-1-methylpiperidin-4-yl)-3-(4-cyanophenyl)urea, which has the structure: […]

[3] = Accelerated 21-day stability study of tablets, shelf-life prediction from (2S,4R)-epimer formation; conditions: 60 cc HDPE bottle, 30 count tablets, 25° C./60% RH, epimer limit NMT 0.5%
Experimental: See Waterman et al., Pharmaceutical Research, 24(4): 780-790 (2007). The tablets were stored in open glass bottles and exposed to various temperature, humidities and durations.
The recommended packaging for the glasdegib dihydrochloride monohydrate tablets is HDPE/IS Bottle, with desiccant. The labeled storage condition of this product is 15-25° C.
The recommended packaging for the glasdegib maleate tablets is HDPE/IS Bottle and no desiccant is required. The labeled storage condition of this product is 15-25° C.

SMILES	Thermal Stability (stable up to) [1]	% -(2S,4R)-Epimer 6 weeks @ 50° C./75% RH [2] [%]	shelf-life predicted, with desiccant ([3]; with desiccant)	shelf-life predicted, stored without desiccant [3]	% -(2S,4R)-Epimer Initial Level ([2]; before storage) [%]
CN1CC[C@@H](NC(=O)Nc2ccc(C#N)cc2)C[C@@H]1c1nc2ccccc2[nH]1 [Glasdegib dihydrochloride monohydrate]	Stable up to 50 °C	2.75	approximately 5 years	less than 2 years	–
CN1CC[C@@H](NC(=O)Nc2ccc(C#N)cc2)C[C@@H]1c1nc2ccccc2[nH]1.O=C(O)/C=C\C(=O)O [Glasdegib maleate (Form 1), 1-((2R,4R)-2-(1H-benzo[d]imidazol-2-yl)-1-methylpiperidin-4-yl)-3-(4-cyanophenyl)urea maleate]	Stable up to 207 °C	0.55	–	more than 6 years	0.024
